Results on 26 compounds are retold here after patent US20250282768A1 (Janssen Pharmaceutica NV, priority 2022, published 2025).

Bounds are passed on as bounds.

This experiment deals with p-IKKa levels in L363 (NIK translocated multiple myeloma) cells. As to the kind of experiment: Assay 2: Effect of compounds on p-IKKa levels in L363 (NIK translocated multiple myeloma) cells. It counts as cell-based. The note with it: Homo sapiens, L-363, 6 h, read-out: Assay 2 IC50 (nM), p-IKKa (Ser 176/180) in BAFF stimulated L363 cells with MG132, 6 h; average if tested more than once. The gist of the method: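 Read-out is p-IKKa Ser176/180 by AlphaLISA SureFire in lysates. Cells were BAFF-primed (250 ng/ml) overnight or left unstimulated, then exposed 6 h at 37 °C to compound with MG132 (10 μM), 0.3% DMSO. IC50 from sigmoidal curve fit, normalized between stimulated and unstimulated controls.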
`CN1CC[C@@](O)(c2cc(-c3cccc(-c4ccnc(NCCn5ccc(N)n5)n4)n3)no2)C1=O` [Example 123, (R)-3-(3-(6-(2-((2-(3-Amino-1H-pyrazol-1-yl)ethyl)amino)pyrimidin-4-yl)pyridin-2-yl)isoxazol-5-yl)-3-hydroxy-1-methylpyrrolidin-2-one]: the IC50 was > 500 nM.

Regarding `CN1CC[C@@](O)(c2cc(-c3cccc(-c4ccnc(Nc5cnn(C6CC6)c5)n4)n3)no2)C1=O` [Example 124, (R)-3-(3-(6-(2-((1-Cyclopropyl-1H-pyrazol-4-yl)amino)pyrimidin-4-yl)pyridin-2-yl)isoxazol-5-yl)-3-hydroxy-1-methylpyrrolidin-2-one], the IC50 was < 50 nM. The result for `CN1CC[C@@](O)(c2cc(-c3cccc(-c4ccnc(Nc5cnn(CCN)c5)n4)n3)no2)C1=O` [Example 125, (R)-3-(3-(6-(2-((1-(2-Aminoethyl)-1H-pyrazol-4-yl)amino)pyrimidin-4-yl)pyridin-2-yl)isoxazol-5-yl)-3-hydroxy-1-methylpyrrolidin-2-one] reads 50 to 500 nM; that for `CN(C)CCn1ccc(Nc2nccc(-c3cccc(-c4cc([C@]5(O)CCN(C)C5=O)on4)n3)n2)n1` [Example 126, (R)-3-(3-(6-(2-((1-(2-(Dimethylamino)ethyl)-1H-pyrazol-3-yl)amino)pyrimidin-4-yl)pyridin-2-yl)isoxazol-5-yl)-3-hydroxy-1-methylpyrrolidin-2-one], < 50 nM; that for `CN1CC[C@@](O)(c2cc(-c3cccc(-c4ccnc(Nc5ccnn6ccnc56)n4)n3)no2)C1=O` [Example 127, (R)-3-Hydroxy-3-(3-(6-(2-(imidazo[1,2-b]pyridazin-8-ylamino)pyrimidin-4-yl)pyridin-2-yl)isoxazol-5-yl)-1-methylpyrrolidin-2-one], 50 to 500 nM. The result for `Cc1nccc(Nc2nccc(-c3cccc(-c4cc([C@]5(O)CCN(C)C5=O)on4)n3)n2)c1C` [Example 128, (R)-3-(3-(6-(2-((2,3-Dimethylpyridin-4-yl)amino)pyrimidin-4-yl)pyridin-2-yl)isoxazol-5-yl)-3-hydroxy-1-methylpyrrolidin-2-one] reads < 50 nM; that for `Cc1cc(Nc2nccc(-c3cccc(-c4cc([C@]5(O)CCN(C)C5=O)on4)n3)n2)n(CCO)n1` [Example 129, (R)-3-Hydroxy-3-(3-(6-(2-((1-(2-hydroxyethyl)-3-methyl-1H-pyrazol-5-yl)amino)pyrimidin-4-yl)pyridin-2-yl)isoxazol-5-yl)-1-methylpyrrolidin-2-one], 50 to 500 nM; that for `CN(C)CCOc1ccc(Nc2nccc(-c3cccc(-c4cc([C@]5(O)CCN(C)C5=O)on4)n3)n2)nn1` [Example 130, (R)-3-(3-(6-(2-((6-(2-(Dimethylamino)ethoxy)pyridazin-3-yl)amino)pyrimidin-4-yl)pyridin-2-yl)isoxazol-5-yl)-3-hydroxy-1-methylpyrrolidin-2-one], 50 to 500 nM. The result for `Cc1ncnn1-c1ccc(Nc2nccc(-c3cccc(-c4cc([C@]5(O)CCN(C)C5=O)on4)n3)n2)nc1` [Example 131, (R)-3-Hydroxy-1-methyl-3-(3-(6-(2-((5-(5-methyl-1H-1,2,4-triazol-1-yl)pyridin-2-yl)amino)pyrimidin-4-yl)pyridin-2-yl)isoxazol-5-yl)pyrrolidin-2-one] reads 50 to 500 nM. `CN1C(=O)[C@](O)(c2cc(-c3cccc(-c4ccnc(Nc5cnn6c5CCC6)n4)n3)no2)[C@H]2C[C@H]21` [Example 133, (1R,4R,5S)-4-(3-(6-(2-((5,6-Dihydro-4H-pyrrolo[1,2-b]pyrazol-3-yl)amino)pyrimidin-4-yl)pyridin-2-yl)isoxazol-5-yl)-4-hydroxy-2-methyl-2-azabicyclo[3.1.0]hexan-3-one]: the IC50 was < 50 nM. The result for `CN1CC[C@@](O)(c2cc(-c3cccc(-c4ccnc(Nc5cnn6c5CCC6)n4)n3)on2)C1=O` [Example 134, (R)-3-(5-(6-(2-((5,6-Dihydro-4H-pyrrolo[1,2-b]pyrazol-3-yl)amino)pyrimidin-4-yl)pyridin-2-yl)isoxazol-3-yl)-3-hydroxy-1-methylpyrrolidin-2-one] reads < 50 nM. As for `COCn1ncc(Nc2nccc(-c3cccc(-c4cc([C@]5(O)CCN(C)C5=O)no4)n3)n2)n1` [Example 135, (R)-3-Hydroxy-3-(5-(6-(2-((2-(methoxymethyl)-2H-1,2,3-triazol-4-yl)amino)pyrimidin-4-yl)pyridin-2-yl)isoxazol-3-yl)-1-methylpyrrolidin-2-one], the IC50 was < 50 nM. Take `COc1cc(-c2ccnc(Nc3cnn(C)c3)n2)nc(-n2cc([C@]3(O)CCN(C)C3=O)nn2)c1` [Example 136, (R)-3-Hydroxy-3-(1-(4-methoxy-6-(2-((1-methyl-1H-pyrazol-4-yl)amino)pyrimidin-4-yl)pyridin-2-yl)-1H-1,2,3-triazol-4-yl)-1-methylpyrrolidin-2-one]: the IC50 was < 50 nM. For `CN1CC[C@@](O)(c2cn(-c3cc(C(F)F)cc(-c4ccnc(Nc5cnn(C)c5)n4)n3)nn2)C1=O` [Example 137, (R)-3-(1-(4-(Difluoromethyl)-6-(2-((1-methyl-1H-pyrazol-4-yl)amino)pyrimidin-4-yl)pyridin-2-yl)-1H-1,2,3-triazol-4-yl)-3-hydroxy-1-methylpyrrolidin-2-one] the value was < 50 nM; for `COCc1cc(-c2ccnc(Nc3cnn(C)c3)n2)nc(-n2cc([C@]3(O)CCN(C)C3=O)nn2)c1` [Example 138, (R)-3-Hydroxy-3-(1-(4-(methoxymethyl)-6-(2-((1-methyl-1H-pyrazol-4-yl)amino)pyrimidin-4-yl)pyridin-2-yl)-1H-1,2,3-triazol-4-yl)-1-methylpyrrolidin-2-one], 50 to 500 nM. For the compound `Cc1nn(CC(F)F)cc1Nc1nccc(-c2cccc(-n3cc([C@]4(O)CCN(C)C4=O)nn3)n2)n1` [Example 144, (R)-3-(1-(6-(2-((1-(2,2-Difluoroethyl)-3-methyl-1H-pyrazol-4-yl)amino)pyrimidin-4-yl)pyridin-2-yl)-1H-1,2,3-triazol-4-yl)-3-hydroxy-1-methylpyrrolidin-2-one], the IC50 was < 50 nM. For `COc1cc(-c2cc([C@]3(O)CCN(C)C3=O)on2)nc(-c2ccnc(Nc3cnn(C)c3)n2)c1` [Example 145, (R)-3-Hydroxy-3-(3-(4-methoxy-6-(2-((1-methyl-1H-pyrazol-4-yl)amino)pyrimidin-4-yl)pyridin-2-yl)isoxazol-5-yl)-1-methylpyrrolidin-2-one] the value was < 50 nM.

With `COc1cc(-c2cc([C@]3(O)CCN(C)C3=O)on2)nc(-c2ccnc(Nc3ccn(C)n3)n2)c1` [Example 146, (R)-3-Hydroxy-3-(3-(4-methoxy-6-(2-((1-methyl-1H-pyrazol-3-yl)amino)pyrimidin-4-yl)pyridin-2-yl)isoxazol-5-yl)-1-methylpyrrolidin-2-one], the IC50 is < 50 nM. For `CC(Nc1nccc(-c2cccc(-c3cc([C@]4(O)CCN(C)C4=O)on3)n2)n1)c1cc[nH]n1` (stereo partly drawn) [Example 147, (3R)-3-(3-(6-(2-((1-(1H-Pyrazol-3-yl)ethyl)amino)pyrimidin-4-yl)pyridin-2-yl)isoxazol-5-yl)-3-hydroxy-1-methylpyrrolidin-2-one] the value was 50 to 500 nM. For `C[C@@H](O)[C@@H](Nc1nccc(-c2cccc(-c3cc([C@]4(O)CCN(C)C4=O)on3)n2)n1)c1ccccc1` [Example 152, (R)-3-Hydroxy-3-(3-(6-(2-(((1 S,2R)-2-hydroxy-1-phenylpropyl)amino)pyrimidin-4-yl)pyridin-2-yl)isoxazol-5-yl)-1-methylpyrrolidin-2-one] the value was 50 to 500 nM; for `C[C@H](Nc1nccc(-c2cccc(-c3cc([C@]4(O)CCN(C)C4=O)on3)n2)n1)c1ccc2nccn2c1` [Example 153, (R)-3-Hydroxy-3-(3-(6-(2-(((S)-1-(imidazo[1,2-a]pyridin-6-yl)ethyl)amino)pyrimidin-4-yl)pyridin-2-yl)isoxazol-5-yl)-1-methylpyrrolidin-2-one], > 500 nM; for `C[C@H](O)[C@@H](Nc1nccc(-c2cccc(-c3cc([C@]4(O)CCN(C)C4=O)on3)n2)n1)c1ccccc1` [Example 158, (R)-3-Hydroxy-3-(3-(6-(2-(((1 S,2S)-2-hydroxy-1-phenylpropyl)amino)pyrimidin-4-yl)pyridin-2-yl)isoxazol-5-yl)-1-methylpyrrolidin-2-one], > 500 nM. `C[C@@H](O)[C@H](Nc1nccc(-c2cccc(-c3cc([C@]4(O)CCN(C)C4=O)on3)n2)n1)c1ccccc1` [Example 159, (R)-3-Hydroxy-3-(3-(6-(2-(((1R,2R)-2-hydroxy-1-phenylpropyl)amino)pyrimidin-4-yl)pyridin-2-yl)isoxazol-5-yl)-1-methylpyrrolidin-2-one]: the IC50 was 50 to 500 nM. On to `C[C@@H](Nc1nccc(-c2cccc(-c3cc([C@]4(O)CCN(C)C4=O)on3)n2)n1)C(=O)N1CCC1` [Example 167, (R)-3-(3-(6-(2-(((R)-1-(Azetidin-1-yl)-1-oxopropan-2-yl)amino)pyrimidin-4-yl)pyridin-2-yl)isoxazol-5-yl)-3-hydroxy-1-methylpyrrolidin-2-one], for which the IC50 is > 500 nM. For the compound `C[C@H](Nc1nccc(-c2cccc(-c3cc([C@]4(O)CCN(C)C4=O)on3)n2)n1)C(=O)N1CCC1` [Example 168, (R)-3-(3-(6-(2-(((S)-1-(Azetidin-1-yl)-1-oxopropan-2-yl)amino)pyrimidin-4-yl)pyridin-2-yl)isoxazol-5-yl)-3-hydroxy-1-methylpyrrolidin-2-one], the IC50 fell in the range of 50 to 500 nM. With `C[C@@H](Nc1nccc(-c2cccc(-c3cc([C@]4(O)CCN(C)C4=O)on3)n2)n1)C(=O)N1CC(F)(F)C1` [Example 169, (R)-3-(3-(6-(2-(((R)-1-(3,3-Difluoroazetidin-1-yl)-1-oxopropan-2-yl)amino)pyrimidin-4-yl)pyridin-2-yl)isoxazol-5-yl)-3-hydroxy-1-methylpyrrolidin-2-one], the IC50 was > 500 nM.
